Key:
Assay in all cases: relative viability (nuclei count vs DMSO), 5 days (fraction); higher = more cells survive
Sulindac + Crizotinib = compound: CC1=C(CC(=O)O)c2cc(F)ccc2/C1=C\c1ccc([S+](C)[O-])cc1 [Sulindac] + C[C@@H](Oc1cc(-c2cnn(C3CCNCC3)c2)cnc1N)c1c(Cl)ccc(F)c1Cl [Crizotinib] (partner 1 µM)
How it was run: (§1)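 Dosing by pin tool came one day after lung cancer cell lines were seeded in 1536-well plates, using either one drug or a fixed anchor-drug dose plus five library-drug doses (not always all listed) in √10 steps. After 5 days, nuclei were counted on 4× images. Relative viability is treated-well nuclei count divided by vehicle-well nuclei count, and values are medians of duplicate plates.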

[1] = compound: CN[C@@H]1C[C@H]2O[C@@](C)([C@@H]1OC)n1c3ccccc3c3c4c(c5c6ccccc6n2c5c31)C(=O)NC4 [Staurosporine] + CS(=O)(=O)CCNCc1ccc(-c2ccc3ncnc(Nc4ccc(OCc5cccc(F)c5)c(Cl)c4)c3c2)o1 [Lapatinib] (partner 2 µM)
How it was run: as §1

[2] = compound: O=c1[nH]cc(F)c(=O)[nH]1 [5-Fluorouracil] + Cc1cc(Nc2cc(N3CCN(C)CC3)nc(Sc3ccc(NC(=O)C4CC4)cc3)n2)n[nH]1 [Tozasertib] (partner 0.1 µM)
How it was run: as §1

[3] = compound: O=c1[nH]cc(F)c(=O)[nH]1 [5-Fluorouracil] + C[C@]1(O)C[C@@H](c2nc(-c3ccc4ccc(-c5ccccc5)nc4c3)c3c(N)nccn32)C1 [Linsitinib] (partner 1 µM)
How it was run: as §1

Cell Line | relative viability (Sulindac + Crizotinib; first compound 0.08 µM) | relative viability (Sulindac + Crizotinib; first compound 0.253 µM) | relative viability (Sulindac + Crizotinib; first compound 0.8 µM) | relative viability (Sulindac + Crizotinib; first compound 2.53 µM) | relative viability (Sulindac + Crizotinib; first compound 8 µM) | relative viability ([1]; first compound 0.005 µM) | relative viability ([1]; first compound 0.01581 µM) | relative viability ([1]; first compound 0.05 µM) | relative viability ([1]; first compound 0.1581 µM) | relative viability ([1]; first compound 0.5 µM) | relative viability ([2]; first compound 0.02 µM) | relative viability ([2]; first compound 0.2 µM) | relative viability ([2]; first compound 0.6325 µM) | relative viability ([2]; first compound 2 µM) | relative viability ([3]; first compound 0.02 µM) | relative viability ([3]; first compound 0.2 µM) | relative viability ([3]; first compound 0.6325 µM) | relative viability ([3]; first compound 2 µM)
NCI-H23 | 0.39 | 0.643 | 0.359 | 0.689 | 0.504 | 0.886 | 0.184 | 0.357 | 0.172 | 0.134 | 0.544 | 0.327 | 0.318 | 0.189 | 0.488 | 0.631 | 0.444 | 0.271
NCI-H322M | 1.02 | 1.05 | 0.687 | 1.03 | 1.05 | 0.746 | 0.438 | 0.484 | 0.402 | 0.278 | 0.511 | 0.495 | 0.391 | 0.323 | 0.898 | 0.747 | 0.652 | 0.64
NCI-H358 | 0.475 | 0.52 | 0.596 | 0.497 | 0.746 | 0.534 | 0.378 | 0.259 | 0.152 | 0.136 | 0.132 | 0.104 | 0.0975 | 0.103 | 0.704 | 0.883 | 0.867 | 0.483
NCI-H460 | 1.41 | 1.07 |  | 0.833 | 1.19 | 1.08 | 0.389 | 0.455 | 0.0071 | 0.0093 | 0.459 | 0.13 | 0.106 | 0.0388 | 0.872 |  | 0.163 | 0.042
NCI-H520 | 0.801 | 0.747 | 0.445 | 0.828 | 0.876 | 0.935 | 0.595 | 0.514 | 0.178 | 0.13 |  | 0.484 | 0.438 | 0.329 | 0.892 | 1.07 | 0.751 | 0.356
NCI-H596 | 0.896 | 1.05 | 0.913 | 0.991 | 1.04 | 1.08 | 0.749 | 0.419 | 0.181 | 0.157 | 0.939 | 0.845 | 0.479 | 0.364 | 1.02 | 0.834 | 0.689 | 0.567
NCI-H647 | 1.4 | 1.21 | 0.879 | 1.26 | 1.35 | 0.603 | 0.262 | 0.253 | 0.0661 | 0.0597 | 0.146 | 0.415 | 0.232 | 0.243 | 1.05 | 1.32 | 1.16 | 0.701
NCI-H650 | 0.788 | 0.73 | 0.793 | 0.637 | 0.914 | 0.503 | 0.393 | 0.286 | 0.245 | 0.184 | 0.765 | 0.384 | 0.309 | 0.257 | 0.866 | 0.691 | 0.511 | 0.394
NCI-H661 | 0.973 | 1.03 | 1.03 | 1.17 | 0.973 | 0.472 | 0.395 | 0.266 | 0.235 | 0.236 | 0.365 | 0.355 | 0.342 | 0.319 | 0.466 | 0.731 | 0.654 | 0.522
NCI-H727 | 0.964 | 0.779 | 0.782 | 0.856 | 1.03 | 0.666 | 0.324 | 0.307 | 0.388 | 0.181 | 0.659 | 0.646 | 0.691 | 0.571 | 0.272 | 0.443 | 0.31 | 0.332
NCI-H838 | 1.12 | 0.781 | 0.674 | 0.903 | 0.884 | 0.25 | 0.164 | 0.211 | 0.134 | 0.103 | 0.267 | 0.251 | 0.243 | 0.183 | 1.01 | 1.06 | 0.578 | 0.312
NCI-H1355 | 1.27 | 1.15 | 0.954 | 1.07 | 1.11 | 0.96 | 0.557 | 0.272 | 0.188 | 0.193 | 0.529 | 0.366 | 0.258 | 0.226 | 0.639 | 0.681 | 0.398 | 0.314
NCI-H1437 | 1.15 | 0.992 | 0.58 | 0.978 | 1.04 | 0.698 | 0.346 | 0.453 | 0.152 | 0.0978 | 0.34 | 0.259 | 0.191 | 0.139 |  | 0.26 | 0.169 | 0.119
NCI-H1651 | 0.969 | 0.86 |  | 0.93 | 0.929 | 0.708 | 0.413 | 0.356 | 0.107 | 0.0625 | 0.626 | 0.602 | 0.543 | 0.441 | 0.973 | 0.859 | 0.602 | 0.468
NCI-H1666 |  | 1.03 | 0.942 | 0.949 | 1.17 | 0.573 | 0.45 | 0.425 | 0.267 | 0.208 | 0.672 | 0.446 | 0.4 | 0.399 | 0.777 | 0.412 | 0.401 | 0.321
NCI-H1734 | 0.658 | 0.754 | 0.583 | 0.703 | 0.787 | 0.958 | 0.322 | 0.31 | 0.121 | 0.136 | 0.249 | 0.261 | 0.241 | 0.237 | 0.762 | 1.05 | 0.706 | 0.546
NCI-H1755 | 1 | 0.886 | 0.743 | 0.981 | 0.935 | 0.556 | 0.33 | 0.207 | 0.142 | 0.142 | 0.643 | 0.523 | 0.309 | 0.28 | 0.96 | 0.796 | 0.322 | 0.254
NCI-H1915 | 1.25 | 1.02 | 0.676 | 0.903 | 0.947 | 1.05 |  | 0.584 | 0.272 | 0.192 | 0.376 | 0.418 | 0.433 | 0.331 | 1.06 | 1.1 | 1.03 | 0.803
